“And” between values parts separate entries of the source, which are not always exact repeats. Equal entries are not always repeated. Where two headings read alike, the source gives them in different places.
Experiments:
[1] = system: patients with platinum-refractory or resistant ovarian cancer; assay type: in vivo
Procedure: This was an open-label, dose-escalation, multicenter, phase I study (EudraCT Number: 2012–005798-29) conducted in 3 investigational sites in France. The 10 mg/m^2/day dose of F14512 was planned as a starting dose (DL1) for escalation in cohorts of 3 to 6 patients until the MTD was reached. Dose escalation was based on a standard titration design by using increments of 33% except from the first dose escalation, which could proceed with a dose increment of 50% in the absence of grade 3 neutropenia and dose limiting toxicity (DLT) observed at DL1. Dose escalation then proceeded except if criteria of MTD were met at DL1. In that instance, the 5 mg/m^2/day dose was tested. All patients in a DL had to be followed for at least 3 weeks (cycle 1) for DLT evaluation before the first patient of the next dose level started treatment. The final decision to proceed to the next DL was made by the safety committee at the dose-escalation meeting. The MTD was defined as the DL at which 2/3 or 2/6 patients experienced a DLT during the first cycle. The Recommended Dose (RD) was the DL immediately below the MTD. A total of 10 evaluable patients had to be treated at the RD.
F14512 was administered as three-hour daily infusion through a central venous catheter for 3 consecutive days every 3 weeks depending on recovery to normal hematopoiesis or recovery of non-hematological toxicities to grade 1. During the first cycle, G- and GM-CSF use was prohibited, however, there were no such constraints in subsequent cycles.
DLTs were defined as one of the following drug-related AEs occurring during the first cycle: grade 4 neutropenia ≥ 7 days, grade 4 thrombocytopenia, or grade 3 thrombocytopenia requiring transfusion and/or associated with bleeding, grade 3 or 4 neutropenia concomitant with grade ≥ 3 infection or febrile neutropenia, any grade ≥ 3 gastrointestinal toxicity including grade ≥ 3 nausea, vomiting or diarrhea if persistent despite optimal antiemetic or anti-diarrheal treatment, any other drug-related grade ≥ 3 toxicity, any drug-related AE that required a delay of ≥ 2 weeks of the administration of cycle 2.

[2] = system: patients with platinum-refractory or resistant ovarian cancer; test: Safety: study drug-related adverse events (NCI-CTC v4.0); assay type: in vivo, human
Procedure: (§1) Toxicities were graded according to National Cancer Institute - Common Toxicity Criteria (NCI - CTC) for adverse events (AEs) (version 4.0). DLT determination criteria and safety assessments are described in the Online Resource. Response was assessed by using GCIG response criteria incorporating RECIST version 1.1 and CA-125. Plasma PK assessments and statistical methods are described in the Online Resource.
Safety was assessed by physical examination on days 1, 2 and 3 during each cycle. Complete blood cell counts were performed on days 4, 6, 8, 10, 12 and 15 of the first cycle, on day 1 of each subsequent cycle and then on a weekly basis thereafter. Serum chemistry was performed weekly during the first cycle and at the end of each cycle thereafter except serum magnesium and potassium which were measured twice weekly during the first week of each cycle and then, weekly for the following weeks. ECGs were performed at baseline and on day 1 of each cycle.

[3] = system: platinum-refractory or resistant ovarian cancer; test: Efficacy by GCIG response criteria (RECIST 1.1 and CA-125); assay type: in vivo, human
Procedure: as §1

[4] = Plasma pharmacokinetics (LC/MS/MS); assay type: in vivo, human; details: for AUCinf/dose level of F14512: n = 11, mean [range], three-hour infusion
Procedure: Plasma PK was studied after the administrations on days 1 and 3 of cycle 1 (pre-dose, T0+1.5 h, T0+3 h, T0+3.5 h, T0+4 h, T0+6 h T0+12 h, T0+24 h) and day 1 of cycle 2 (pre-dose, T0+3.5 h, T0+8 h, T0+24 h). F14512, its metabolite F16490 and the metabolite BG (an additional metabolite peak found in human during exploratory metabolite identification analysis and not retrieved in animal species) were assayed in plasma using liquid chromatography coupled with tandem mass spectrometry (LC/MS/MS).
Continuous data were summarized with frequency, median, range, mean, standard deviation and standard error if relevant. Categorical data were presented as frequencies and percentages. 95% confidence intervals (CI) were calculated following the exact method. PK parameters were compared for reproducibility between day 1 and day 3 of cycle 1 for F14512 and its metabolite F16490 using a pairwise t-test or a Wilcoxon test according to the normality of their distribution. Dose-proportionality of PK parameters for F14512 and its metabolite F16490 was investigated by graphical display only. A p value <0.05 was considered statistically significant. Data were analyzed using the SAS® system software version 9.3 for Windows® (Statistical Analysis System, Cary, NC, USA).

human cancer cell lines = system: human cancer cell lines; set-up: method as in PMID 19047165; details: in vitro; cited from earlier work
experimental models = system: experimental models; set-up: method as in PMID 19777159; details: cited from earlier work
SK-OV3 cancer cells = system: SK-OV3 cancer cells; set-up: method as in PMID 26404751; details: cited from earlier work
[5] = system: PTS(+) A2780R cisplatin-resistant cell line; set-up: method as in PMID 26404751; details: preliminary studies; cited from earlier work
[6] = system: relapsed or refractory acute myeloid leukemia (AML); set-up: method as in earlier work; details: single agent, AML patients at first relapse; cited from earlier work
[7] = system: platinum-resistant ovarian cancer (PROC); details: cited from earlier work
[8] = Overall n = 11 (both dose levels), worse grade by patient

With `COc1cc([C@@H]2c3cc4c(cc3[C@@H](NC(=O)CNCCCNCCCCNCCCN)[C@H]3COC(=O)[C@H]23)OCO4)cc(OC)c1O` [F14512] the “Number of DLTs reported” value ([1]; 5 mg/m^2/day, in 2/6 treated patients) was 2 DLTs, the “Number of DLTs reported” value ([1]; 10 mg/m^2/day, in 3/4 evaluable patients) was 6 DLTs and the “Permanent treatment discontinuation because of study drug-related toxicity” value ([1]; in vivo) was 5 patients. The “Maximum tolerated dose (MTD)” value ([1]; three-hour daily infusion, 3 consecutive days every 3 weeks, both dose levels defined as MTD) was 5 mg/m^2/day and 10 mg/m^2/day, the “Study drug-related AE: Confusional state, Overall grades” value ([2]; 5 mg/m^2/day, n = 6, worse grade by patient) was 1 (16.7) N (%) and the “Grade 4 neutropenia, cycles affected / cycles administered” value ([2]; DL 5 mg/m^2/day) was 14/16. The Neutropenic infection ([2]; DL 5 mg/m^2/day) was 1 patient, the “Grade 4 neutropenia, cycles affected / cycles administered” value ([2]; DL 10 mg/m^2/day) was 12/13 and the “Study drug-related AE: Alopecia, Overall grades” value [2, 8] was 2 (18.2) N (%). For the same compound, the “Study drug-related AE: Any related TESS, Grade 3” value [2, 8] was 6 (54.5) N (%), the “Study drug-related AE: Any related TESS, Grade 4” value [2, 8] was 1 (9.1) N (%) and the “Study drug-related AE: Any related TESS, Overall grades” value [2, 8] was 11 (100.0) N (%). The “Study drug-related AE: Asthenia, Grade 3” value [2, 8] was 2 (18.2) N (%), the “Study drug-related AE: Asthenia, Overall grades” value [2, 8] was 9 (81.8) N (%) and the “Study drug-related AE: Blood and lymphatic system disorders, Grade 3” value [2, 8] was 4 (36.4) N (%). The “Study drug-related AE: Blood and lymphatic system disorders, Grade 4” value [2, 8] was 1 (9.1) N (%), the “Study drug-related AE: Blood and lymphatic system disorders, Overall grades” value [2, 8] was 5 (45.5) N (%) and the “Study drug-related AE: Confusional state, Overall grades” value [2, 8] was 1 (9.1) N (%). The “Study drug-related AE: Constipation, Overall grades” value [2, 8] was 2 (18.2) N (%), the “Study drug-related AE: Diarrhea, Overall grades” value [2, 8] was 2 (18.2) N (%) and the “Study drug-related AE: Dysgeusia, Overall grades” value [2, 8] was 1 (9.1) N (%). For the same compound, the “Study drug-related AE: Dyspepsia, Overall grades” value [2, 8] was 1 (9.1) N (%), the “Study drug-related AE: Febrile neutropenia, Grade 3” value [2, 8] was 4 (36.4) N (%) and the “Study drug-related AE: Febrile neutropenia, Overall grades” value [2, 8] was 4 (36.4) N (%). The “Study drug-related AE: Gastrointestinal disorders, Grade 3” value [2, 8] was 2 (18.2) N (%), the “Study drug-related AE: Gastrointestinal disorders, Overall grades” value [2, 8] was 6 (54.5) N (%) and the “Study drug-related AE: General disorders and administration site conditions, Grade 3” value [2, 8] was 2 (18.2) N (%). For the same compound, the “Study drug-related AE: General disorders and administration site conditions, Overall grades” value [2, 8] was 9 (81.8) N (%), the “Study drug-related AE: Gingivitis, Overall grades” value [2, 8] was 1 (9.1) N (%) and the “Study drug-related AE: Infections and infestations, Overall grades” value [2, 8] was 1 (9.1) N (%). The “Study drug-related AE: Muscle spasms, Overall grades” value [2, 8] was 2 (18.2) N (%), the “Study drug-related AE: Musculoskeletal and connective tissue disorders, Overall grades” value [2, 8] was 2 (18.2) N (%) and the “Study drug-related AE: Myalgia, Overall grades” value [2, 8] was 1 (9.1) N (%). For the same compound, the “Study drug-related AE: Nausea, Grade 3” value [2, 8] was 2 (18.2) N (%), the “Study drug-related AE: Nausea, Overall grades” value [2, 8] was 6 (54.5) N (%) and the “Study drug-related AE: Nervous system disorders, Overall grades” value [2, 8] was 1 (9.1) N (%). The “Study drug-related AE: Neutropenia, Overall grades” value [2, 8] was 1 (9.1) N (%), the “Study drug-related AE: Neutropenic infection, Overall grades” value [2, 8] was 1 (9.1) N (%) and the “Study drug-related AE: Night sweats, Overall grades” value [2, 8] was 1 (9.1) N (%). The “Study drug-related AE: Onycholysis, Overall grades” value [2, 8] was 1 (9.1) N (%), the “Study drug-related AE: Psychiatric disorders, Overall grades” value [2, 8] was 1 (9.1) N (%) and the “Study drug-related AE: Pyrexia, Overall grades” value [2, 8] was 1 (9.1) N (%). The Study drug-related deaths ([2]; all 11 patients) was “no study drug-related deaths”, the Vomiting ([2]; all 11 patients (36%)) was 4 patients and the “Metabolism and nutrition disorder with decreased appetite” value ([2]; all 11 patients (46%)) was 5 patients. The Nausea ([2]; all 11 patients (55%)) was 6 patients, the “Grade 4 neutropenia, share of treated patients” value ([2]; all 11 patients, both dose levels) was 90.9% and the “Study drug-related SAEs per dose level” value ([2]; at each DL (10 and 5 mg/m^2/day)) was 3 patients. For the same compound, the “Grade 4 neutropenia, cycles affected / cycles administered” value ([2]; both dose levels) was 26/29, the Gastrointestinal disorders ([2]; in vivo) was 6 patients and the “General disorders (mainly asthenia)” value ([2]; in vivo) was 9 patients. The “Grade 3 febrile neutropenia” value ([2]; in vivo) was 4 patients, the “Grade 4 neutropenia reported as serious drug-related AE” value ([2]; in vivo) was 1 patient and the “Grade 4 neutropenia, share of cycles administered” value ([2]; in vivo) was 89.7%. For the same compound, the “Study drug-related AE: Skin and subcutaneous tissue disorders, Overall grades” value ([2]; in vivo) was 4 (36.4) N (%), the “Study drug-related AE: Stomatitis, Overall grades” value ([2]; in vivo) was 1 (9.1) N (%) and the “Study drug-related AE: Vomiting, Overall grades” value ([2]; in vivo) was 4 (36.4) N (%). The “Study drug-related serious AEs (SAEs)” value ([2]; in vivo) was 6 patients, the Objective response ([3]; 5 patients evaluable for efficacy, GCIG criteria) was “no objective response” and the “Stable disease (SD) as best overall response” value ([3]; of 5 evaluable patients (40%), both received 9 cycles, 1 at each DL) was 2 patients. For the same compound, the “Dose dependent PK parameters versus dose level” value ([4]; 5 versus 10 mg/m^2/day, no statistical analysis) was “increased with DL”, the Cltot ([4]; D1 of cycle 1, n = 11, mean [range]) was 13.2 [6.17–22.4] L/h and the “AUCinf/dose level of F14512” value ([4]; D1 of cycle 1, plasma) was 152 [67.7–308]. The Cltot ([4]; D3 of cycle 1, n = 11, mean [range]) was 12.9 [5.92–23.1] L/h, the “AUCinf/dose level of F14512” value ([4]; D3 of cycle 1, plasma) was 156 [65.9–270] and the “Difference of PK parameters between Day 1 and Day 3” value ([4]; cycle 1, pairwise t-test or Wilcoxon test) was “not statistically significant”. The “Cell lines with superior anti-proliferative activity” value (human cancer cell lines) was 21/29, the “Tumor response in experimental models” value (experimental models; after intravenous or oral administration) was “complete tumor regression” and the “Experimental models with antitumor efficacy” value (experimental models; in vivo) was 13/19. The “Response rate in experimental models” value (experimental models; in vivo) was 68%, the “Increased sensitivity to cytotoxicity compared to etoposide” value (SK-OV3 cancer cells) was “ten-fold” and the “Antitumor activity in ovarian tumor models” value [5] was “confirmed the antitumor activity”. For the same compound, the Complete remissions [6] was 36%.
In the case of `CC(=O)O[C@H]1C(=O)[C@@]2(C)[C@H]([C@H](OC(=O)c3ccccc3)[C@]3(O)C[C@H](OC(=O)[C@H](O)[C@@H](NC(=O)c4ccccc4)c4ccccc4)C(C)=C1C3(C)C)[C@]1(OC(C)=O)CO[C@@H]1C[C@@H]2O` [paclitaxel], the Progression free survival [7] is given as 2–6 months and the Response rates [7] is given as 0%–30%.

Reference: article PMC6647401, “Phase I dose-escalation study of F14512, a polyamine-vectorized topoisomerase II inhibitor, in patients with platinum-refractory or resistant ovarian cancer” (Investigational New Drugs, 2018)
